Test results as given in patent US6699682B2, “Assay for inhibitors of fatty-acid amide hydrolase” (The Scripps Research Institute, priority 1995, dated 2004).

Key:
[1] = target: T1, FAAH activity of a rat brain membrane fraction (Rattus norvegicus, UniProt P97612); type: biochemical; conditions: rat brain membrane fractions, TLC
T1 construct: Cis-9,10-octadecenoamide with rat brain membrane fraction +1 mM phenylmethylsulfonyl fluoride (PMSF); from tissue; host or cells: rat brain membrane fraction
T1 sequence (P97612 1-579): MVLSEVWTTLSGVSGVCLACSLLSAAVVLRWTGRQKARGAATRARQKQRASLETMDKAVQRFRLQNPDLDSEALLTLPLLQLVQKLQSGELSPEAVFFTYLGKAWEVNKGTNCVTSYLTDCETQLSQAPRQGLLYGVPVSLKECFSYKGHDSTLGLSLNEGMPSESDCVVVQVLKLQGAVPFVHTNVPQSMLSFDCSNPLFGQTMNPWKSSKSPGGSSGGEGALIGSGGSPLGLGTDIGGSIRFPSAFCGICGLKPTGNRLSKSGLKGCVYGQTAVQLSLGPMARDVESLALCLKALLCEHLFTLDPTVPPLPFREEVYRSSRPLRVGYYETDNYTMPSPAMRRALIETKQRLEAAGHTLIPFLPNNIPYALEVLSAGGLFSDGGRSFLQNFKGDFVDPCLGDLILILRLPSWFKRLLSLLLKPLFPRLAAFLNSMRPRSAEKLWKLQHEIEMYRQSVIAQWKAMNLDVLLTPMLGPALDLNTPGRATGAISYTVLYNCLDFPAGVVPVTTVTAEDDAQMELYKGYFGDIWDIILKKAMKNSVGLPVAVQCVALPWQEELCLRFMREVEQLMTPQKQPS
Procedure: In each case the enzymic reaction is performed is a separate reaction vessel and the product is spotted onto a TLC plate.

[2] = target: T2, recombinant expressed rat FAAH (Rattus norvegicus, UniProt P97612); experiment: FAAH hydrolysis assays with 14C-labeled fatty acid amide substrates (TLC, scintillation counting); type: biochemical; conditions: for Rate of Hydrolysis: 35 μg transfected COS-7 cell protein, 5 minutes, 37° C.
T2 construct: expressed in transfected cells; host or cells: COS-7 cells, transient, pcDNA3; dounce-homogenised cell extract
T2 sequence (P97612 1-579): T1 sequence (P97612 1-579)
Procedure: Therefore, COS-7 cells transfected with the rat FAAH cDNA were assayed for anandamide hydrolase activity. To assess the enzymatic activity of the expressed recombinant fatty acid amide hydrolases of this invention on labeled anandamide, the following enzymatic assay was performed. ^14C-anandamide was synthesized as follows: 12.5 μCi (specific activity of 50 μCi/μM) of ^14C arachidonic acid (Moravek Biochemicals) was dissolved in 100 μl CH2Cl2, cooled to 0° C., and treated with excess oxalyl chloride. The reaction mixture was stirred at 25° C. for 6 hours, after which time the solvent was evaporated. The remaining residue was cooled to 0° C., treated with a large excess of ethanolamine, and stirred at 25° C. for 15 minutes. The reaction mixture was then partitioned between ethyl acetate and 2 M HCl, and the organic layer was washed with water and then evaporated to dryness. The resulting ^14C-anandamide was diluted with unlabeled anandamide to a final specific activity of 5 μCi/μM in ethanol. Approximately 1 μCi of ^14C-anandamide and 20 μl of dounce homogenized COS-7 cell extract were used for each anandamide hydrolase assay as detailed above for the oleamide hydrolase assays. Briefly, FAAH hydrolysis assays were conducted in triplicate with 100 μM substrate, 35 μg of rat transfected COS-7 cell protein for 5 minutes at 37° C. (except in the case of stearic amide, where due to low solubility, 20 μM substrate comparison to oleamide were conducted). Products were separated on TLC as described previously, scraped into scintillation fluid, and radioactivity was quantitated by scintillation counting. Substrate hydrolysis in the presence of equal amounts of untransfected COS-7 cell protein extract served as background control in all cases and was substracted from FAAH hydrolysis rates to give the data as presented below.
To further assess the substrate specificity spectrum of enyzmatic hydolytic activity of the recombinant expressed proteins of this invention, other ^14C-labeled fatty acid amides were synthesized as described in Section B6 and above for ^14C-oleamide, with the exception of anandamide as described.
Where indicated in the table the anandamide and oleamide hydrolysis rates are considered to be 100% of FAAH activity to which other fatty acid amide hydrolysis rates are compared.

Q: Which “conversion of 14C-cis-9,10-octadecenoamide to oleic acid” value [1] does the source give for `CCCCCCCC/C=C\CCCCCCCC(N)=O` [cis-9,10-octadecenoamide, Cis-9,10-octadecenoamide] here?
A: The value was “Rapid conversion”.

Q: And the “rate difference between hydrolysis of oleamide and stearic amide” value [2]?
A: The value was “nearly twenty fold”.

Q: And the “% of FAAH activity (oleamide hydrolysis rate = 100%)” value ([2]; 20 μM substrate)?
A: Its value is 100%.

Q: And the “Rate of Hydrolysis” value ([2]; 20 μM substrate)?
A: Its value is 41 ± 2 nmol/min/mg.

Q: And the “% of FAAH activity (anandamide hydrolysis rate = 100%)” value ([2]; 100 μM substrate)?
A: The value was 72.6%.

Q: And the “Rate of Hydrolysis” value ([2]; 100 μM substrate)?
A: The value was 242 ± 20 nmol/min/mg.
